Laboratory results reported in patent US9783523B2, “N-acylimino heterocyclic compounds” (BASF SE, priority 2013, dated 2017).

Key:
Assay type in all cases: in vivo
Spodoptera eridania = test: Southern armyworm (Spodoptera eridania), sprayed lima bean plants; settings: 96 h, read-out: mortality in comparison with untreated controls
Experimental: The active compounds were formulated in cyclohexanone as a 10,000 ppm solution supplied in tubes. The tubes were inserted into an automated electrostatic sprayer equipped with an atomizing nozzle and they served as stock solutions for which lower dilutions were made in 50% acetone:50% water (v/v). A nonionic surfactant (Kinetic®) was included in the solution at a volume of 0.01% (v/v).
Lima bean plants (variety Sieva) were grown 2 plants to a pot and selected for treatment at the 1st true leaf stage. Test solutions were sprayed onto the foliage by an automated electrostatic plant sprayer equipped with an atomizing spray nozzle. The plants were dried in the sprayer fume hood and then removed from the sprayer. Each pot was placed into perforated plastic bags with a zip closure. About 10 to 11 armyworm larvae were placed into the bag and the bags zipped closed. Test plants were maintained in a growth room at about 25° C. and about 20-40% relative humidity for 4 days, avoiding direct exposure to fluorescent light (24 hour photoperiod) to prevent trapping of heat inside the bags. Mortality and reduced feeding were assessed 4 days after treatment, compared to untreated control plants.

Ceratitis capitata = test: Mediterranean fruitfly (Ceratitis capitata), eggs on insect diet in microtiter plates; settings: 120 h, read-out: mortality in comparison with untreated controls
Experimental: For evaluating control of Mediterranean fruitfly (Ceratitis capitata) the test unit consisted of microtiter plates containing an insect diet and 50-80 C. capitata eggs.
The compounds were formulated using a solution containing 75% v/v water and 25% v/v DMSO. Different concentrations of formulated compounds were sprayed onto the insect diet at 5 μl, using a custom built micro atomizer, at two replications.
After application, microtiter plates were incubated at about 28±1° C. and about 80±5% relative humidity for 5 days. Egg and larval mortality was then visually assessed.

Aphis craccivora = test: Cowpea aphid (Aphis craccivora), potted cowpea plants sprayed; settings: 72 h, read-out: mortality in comparison with untreated controls
Experimental: The active compound is dissolved at the desired concentration in a mixture of 1:1 (vol:vol) distilled water:acetone. Surfactant (Alkamuls® EL 620) is added at a rate of 0.1% (vol/vol). The test solution is prepared at the day of use.
Potted cowpea plants are colonized with approximately 50-100 aphids of various stages by manually transferring a leaf tissue cut from infested plant 24 hours before application. Plants are sprayed after the pest population has been recorded. Treated plants are maintained on light carts at about 28° C. Percent mortality is assessed after 72 hours.

Aphis gossypi = test: Cotton aphid (Aphis gossypi), infested cotton plants sprayed; settings: 120 h, read-out: mortality in comparison with untreated controls
Experimental: The active compounds were formulated in cyclohexanone as a 10,000 ppm solution supplied in 1.3 ml ABgene® tubes. These tubes were inserted into an automated electrostatic sprayer equipped with an atomizing nozzle and they served as stock solutions for which lower dilutions were made in 1:1 (vol:vol) water:aceton. A nonionic surfactant (Kinetic®) was included in the solution at a volume of 0.01% (v/v).
Cotton plants at the cotyledon stage were infested with aphids prior to treatment by placing a heavily infested leaf from the main aphid colony on top of each cotyledon. Aphids were allowed to transfer overnight to accomplish an infestation of 80-100 aphids per plant and the host leaf was removed. The infested plants were then sprayed by an automated electrostatic plant sprayer equipped with an atomizing spray nozzle. The plants were dried in the sprayer fume hood, removed from the sprayer, and then maintained in a growth room under fluorescent lighting in a 24-hr photoperiod at 25° C. and 20-40% relative humidity. Aphid mortality on the treated plants, relative to mortality on untreated control plants, was determined after 5 days.

Heliothis virescens = test: Tobacco budworm (Heliothis virescens), eggs on insect diet in 96-well microtiter plates; settings: 120 h, read-out: mortality in comparison with untreated controls
Experimental: For evaluating control of tobacco budworm (Heliothis virescens) the test unit consisted of 96-well-microtiter plates containing an insect diet and 15-25 H. virescens eggs.
The compounds were formulated using a solution containing 75% v/v water and 25% v/v DMSO. Different concentrations of formulated compounds were sprayed onto the insect diet at 10 μl, using a custom built micro atomizer, at two replications.
After application, microtiter plates were incubated at about 28+1° C. and about 80+5% relative humidity for 5 days. Egg and larval mortality was then visually assessed.

Bemisia argentifolii = test: Silverleaf whitefly (Bemisia argentifolii) adults, sprayed cotton plants; settings: 72 h, read-out: mortality in comparison with untreated controls
Experimental: The active compounds were formulated in cyclohexanone as a 10,000 ppm solution supplied in 1.3 ml ABgene® tubes. These tubes were inserted into an automated electrostatic sprayer equipped with an atomizing nozzle and they served as stock solutions for which lower dilutions were made in 1:1 (vol:vol) water: aceton. A nonionic surfactant (Kinetic®) was included in the solution at a volume of 0.01% (v/v).
Cotton plants at the cotyledon stage (one plant per pot) were sprayed by an automated electrostatic plant sprayer equipped with an atomizing spray nozzle. The plants were dried in the sprayer fume hood and then removed from the sprayer. Each pot was placed into a plastic cup and 10 to 12 whitefly adults (approximately 3-5 days old) were introduced. The insects were collected using an aspirator and 0.6 cm, nontoxic Tygon® tubing (R-3603) connected to a barrier pipette tip. The tip, containing the collected insects, was then gently inserted into the soil containing the treated plant, allowing insects to crawl out of the tip to reach the foliage for feeding. Cups were covered with a reusable screened lid (150-micron mesh polyester screen PeCap from Tetko, Inc.). […] Mortality was assessed 3 days after treatment, compared to untreated control plants.

Nezara viridula = test: Green soldier stink bug (Nezara viridula), sprayed soybean pods in Petri dishes; settings: 120 h, read-out: mortality in comparison with untreated controls
Experimental: The active compound is dissolved at the desired concentration in a mixture of 1:1 (vol:vol) distilled water:aceteone. Surfactant (Kinetic HV) is added at a rate of 0.01% (vol/vol). The test solution is prepared at the day of use.
Soybean pods were placed in 90×50 mm glass Petri dishes lined with moist filter paper and inoculated with ten late 3rd instar N. viridula. Using a hand atomizer, an approximately 2 ml solution is sprayed into each Petri dish. Treated cups were kept at about 25-26° C. and relative humidity of about 65-70%. Percent mortality was recorded after 5 days.

Dichromothrips corbetti = test: Orchid thrips (Dichromothrips corbetti), floral-immersion technique; settings: 72 h, read-out: mortality in comparison with untreated controls
Experimental: Dichromothrips corbetti adults used for bioassay are obtained from a colony maintained continuously under laboratory conditions. For testing purposes, the test compound is diluted in a 1:1 mixture of acetone:water (vol:vol), plus 0.01% vol/vol Alkamuls® EL 620 surfactant.
Thrips potency of each compound is evaluated by using a floral-immersion technique. Plastic petri dishes are used as test arenas. All petals of individual, intact orchid flowers are dipped into treatment solution and allowed to dry. Treated flowers are placed into individual petri dishes along with about 20 adult thrips. The petri dishes are then covered with lids. All test arenas are held under continuous light and a temperature of about 28° C. for duration of the assay. After 3 days, the numbers of live thrips are counted on each flower, and along inner walls of each petri dish. The percent mortality is recorded 72 hours after treatment.

Myzus persicae = test: Green peach aphid (Myzus persicae), systemic control, liquid artificial diet under membrane in 96-well microtiter plates; settings: 72 h, read-out: mortality in comparison with untreated controls
Text: General conditions: If not otherwise specified, most test solutions are to be prepared as follows: The active compound is to be dissolved at the desired concentration in a mixture of 1:1 (vol:vol) distilled water:acteon. Further, the test solutions are to be prepared at the day of use (and, if not otherwised specified, in general at concentrations wt/vol).
For evaluating control of green peach aphid (Myzus persicae) through systemic means, the test unit consists of 96-well-microtiter plates containing liquid artificial diet under an artificial membrane.
The compounds are formulated using a solution containing 75% v/v water and 25% v/v DMSO. Different concentrations of formulated compounds are pipetted into the aphid diet, using a custom built pipetter, at two replications.
After application, 5-8 adult aphids are placed on the artificial membrane inside the microtiter plate wells. The aphids are then allowed to suck on the treated aphid diet and incubated at about 23+1° C. and about 50+5% relative humidity for 3 days. Aphid mortality and fecundity is then visually assessed.

Nephotettix virescens = test: Rice green leafhopper (Nephotettix virescens), sprayed rice seedlings; settings: 72 h, read-out: mortality in comparison with untreated controls
Experimental: Rice seedlings are cleaned and washed 24 hours before spraying. The active compounds are formulated in 50:50 acetone:water (vol:vol), and 0.1% vol/vol surfactant (EL 620) is added. Potted rice seedlings are sprayed with 5 ml test solution, air dried, placed in cages and inoculated with 10 adults. Treated rice plants are kept at about 28-29° C. and relative humidity of about 50-60%. Percent mortality is recorded after 72 hours.

Anthonomus grandis = test: Boll weevil (Anthonomus grandis), eggs on insect diet in 24-well microtiter plates; settings: 120 h, read-out: mortality in comparison with untreated controls
Experimental: The compounds were formulated in 3:1 (vol:vol) water:DMSO.
For evaluating control of boll weevil (Anthonomus grandis) the test unit consisted of 24-well-microtiter plates containing an insect diet and 20-30 A. grandis eggs. Different concentrations of formulated compounds were sprayed onto the insect diet at 20 μl, using a custom built micro atomizer, at two replications. After application, the microtiter plates were incubated at 23±1° C. and 50±5% relative humidity for 5 days. Egg and larval mortality was then visually assessed.

Nilaparvata lugens = test: Rice brown plant hopper (Nilaparvata lugens), sprayed rice seedlings; settings: 72 h, read-out: mortality in comparison with untreated controls
Experimental: Rice seedlings are cleaned and washed 24 hours before spraying. The active compounds is formulated in 50:50 acetone:water (vol:vol) and 0.1% vol/vol surfactant (EL 620) was added. Potted rice seedlings are sprayed with 5 ml test solution, air dried, placed in cages and inoculated with 10 adults. Treated rice plants are kept at about 28-29° C. and relative humidity of about 50-60%. Percent mortality is recorded after 72 hours.

Plutella xylostella = test: Diamond back moth (Plutella xylostella), dipped cabbage leaves; settings: 72 h, read-out: mortality in comparison with untreated controls
Experimental: The active compound is dissolved at the desired concentration in a mixture of 1:1 (vol:vol) distilled water:aceteone. Surfactant (Alkamuls® EL 620) is added at a rate of 0.1% (vol/vol). The test solution is prepared at the day of use.
Leaves of cabbage were dipped in test solution and air-dried. Treated leaves were placed in petri dish eslined with moist filter paper and inoculated with ten 3rd instar larvae. Mortality was recorded 72 hours after treatment. Feeding damages were also recorded using a scale of 0-100%.

Megoura viciae = test: Vetch aphid (Megoura viciae), sprayed bean leaf disks in microtiter plates; settings: foliar, 144 h, read-out: mortality in comparison with untreated controls
Experimental: The active compounds were formulated in 3:1 (vol:vol) water:DMSO with different concentrations of formulated compounds.
Bean leaf disks were placed into microtiterplates filled with 0.8% agar-agar and 2.5 ppm OPUS™. The leaf disks were sprayed with 2.5 μl of the test solution and 5 to 8 adult aphids were placed into the microtiter plates which were then closed and kept at 23±1° C. and 50±5% relative humidity under fluorescent light for 6 days. Mortality was assessed on the basis of vital, reproduced aphids. Aphid mortality and fecundity was then visually assessed.

CO/N=C/C(=O)/N=c1\ccccn1Cc1ccc(Cl)nc1 [Compound I-15]
≥ 75%: mortality at 300 ppm (Spodoptera eridania) | mortality at 2500 ppm (Ceratitis capitata) | mortality at 500 ppm (Aphis craccivora) | mortality at 300 ppm (Aphis gossypi) | mortality at 2500 ppm (Heliothis virescens) | mortality at 300 ppm (Bemisia argentifolii) | mortality at 500 ppm (Nezara viridula) | mortality at 500 ppm (Dichromothrips corbetti) | mortality at 2500 ppm (Myzus persicae) | mortality at 300 ppm (Nephotettix virescens) | mortality at 2500 ppm (Anthonomus grandis) | mortality at 500 ppm (Nilaparvata lugens) | mortality at 500 ppm (Plutella xylostella) | mortality at 2500 ppm (Megoura viciae)
